Marks after values point to notes of the source that are not given here.
Tested on: C. albicans
Assay: in vivo antifungal activity, candidemia in mice infected with C. albicans
Parameters: species or system Albino male mice
Settings: C. albicans-infected mice; for daily body weight / % change in daily body weight / Food consumption / Mortality / Water consumption: oral 12 mg/kg then 6 mg/ml
Protocol: To confirm that the water soluble form of the compound 4 has a biological activity as a novel antimicrobial agent, effectiveness of the compound 4 as a drug to treat candidemia in mice was investigated. The experiment was performed in Experimental Animal Care Center (EACC), College of Pharmacy, King Saud University, Riyadh. Fifty Albino male mice, weighing nearly 30±2 gram were used. The mice were arranged in five groups, each including ten mice caged together, given water, and feed ad libitum. Negative control and control group were infected intravenously with 0.2 ml of C. albicans suspension (10^6 CFU/mouse) and 0.2 ml of sterile normal saline (0.89% Nacl) respectively. The group treated with standard drug (fluconazole) was infected intravenously with 0.2 ml of C. albicans suspension (10^6 CFU/mouse) and treated (orally) by 12 mg/kg of fluconazole (loading dose) on the first day followed by 6 mg/ml for 2 weeks. The group treated with the investigated compound 4 was infected intravenously with C. albicans at 10^6 CFU/mouse (0.2 ml) and treated (orally) by 12 mg/kg of the compound 4 (loading dose) on the first day followed by 6 mg/ml for 2 weeks. To study the biological effects of compound 4, a fifth group was designed. In this group the mice were treated intravenously (I. V) with 12 mg/kg of the compound 4 on the first day followed by 6 mg/ml for 2 weeks. All doses of the standard drug and compound 4 were given twice daily.
The effectiveness of the previous treatments on some biological concepts were evaluated. The biological parameters included daily body weight (gm), mortality (%), food consumption (g/day/mouse), water consumption (ml/day/mouse), serum glutamic oxaloacetic transaminase [SGOT(AST) (U/L)], serum glutamic-pyruvic transaminase [SGPT(ALT)(U/L)], alkaline phosphatase (U/L), gamma-glutamyl transferase (GGT) (U/L), bilirubin (mg/dl)], cholesterol (mg/dl), triglycerides (mg/dl), high-density lipoprotein (HDL) (mg/dl), very-low-density lipoprotein (VLDL) (mg/dl), low-density lipoprotein (LDL) (mg/dl), lactate dehydrogenase (LDH) (U/L), glucose (mg/dl), total protein (mg/dl), malondialdehyde (MDA) (nmol/g), nonprotein sulfyhydryl (NP-SH) (nmol/g). Addition hematologic constituents including white blood cells (WBC) (cell/mm^3), red blood cells (RBC) (10^6/mm^3), hemoglobin (HGB) (g/dL), HCT, Platelets (PLT) (10^3/mm^3), mean corpuscular volume (MCV) (fL), mean corpuscular hemoglobin (MCH) (pg), mean corpuscular hemoglobin concentration (MCHC) (g/dL), neutrophils (%), lymphocytes (%), eosinophils (%) and monocytes (%)] were evaluated (Classics Lowry et al. 1951; Utley et al. 1967; Sedlak et al. 1968). SGOT (AST), SGPT (ALT), ALP, GGT, bilirubin LDH and total protein were estimated using Reflotron Plus Analyzer and Roche kits (Roche Diagnostics GmbH, Mannheim Germany) and United diagnostic kits assay. Hematological tests were performed by Mindray BC-2800VET auto Hematology Analyzer.

[1] = blood, oral 12 mg/kg then 6 mg/ml for 2 weeks
[2] = liver tissue, oral 12 mg/kg then 6 mg/ml for 2 weeks
[3] = serum, oral 12 mg/kg then 6 mg/ml for 2 weeks

Question: Which daily body weight (day 0) does the source give for `OC(Cn1cncn1)(Cn1cncn1)c1ccc(F)cc1F` [fluconazole, reference compound] here?
Answer: Its daily body weight is 19.70 ± 0.47 gm.

Question: What about the “% change in daily body weight” value (day 1) of the same molecule?
Answer: Its value is 0.50%.

Question: What about the Food consumption (day 1) of the same molecule?
Answer: The Food consumption was 4.3 g/day/mice.

Question: What about the Mortality (day 1) of the same molecule?
Answer: The Mortality was 0%.

Question: What about the Water consumption (day 1) of the same molecule?
Answer: Its Water consumption is 4.8 g/day/mice.

Question: And the daily body weight (day 1)?
Answer: Its daily body weight is 19.80 ± 0.35 gm.

Question: And the “% change in daily body weight” value (day 2)?
Answer: The value was 10.65%.

Question: What about the Food consumption (day 2) of the same molecule?
Answer: The Food consumption was 4.3 g/day/mice.

Question: And the Mortality (day 2)?
Answer: Its Mortality is 0%.

Question: And the Water consumption (day 2)?
Answer: Its Water consumption is 4.8 g/day/mice.

Question: What about the daily body weight (day 2) of the same molecule?
Answer: The daily body weight was 21.80 ± 0.24 gm.

Question: What about the “% change in daily body weight” value (day 3) of the same molecule?
Answer: The value was 13.19%.

Question: And the Food consumption (day 3)?
Answer: The Food consumption was 4.5 g/day/mice.

Question: And the Mortality (day 3)?
Answer: The Mortality was 0%.

Question: And the Water consumption (day 3)?
Answer: Its Water consumption is 4.9 g/day/mice.

Question: And the daily body weight (day 3)?
Answer: Its daily body weight is 22.30 ± 0.21 gm.

Question: And the “% change in daily body weight” value (day 4)?
Answer: Its value is 13.70%.

Question: And the Food consumption (day 4)?
Answer: Its Food consumption is 4.6 g/day/mice.

Question: And the Mortality (day 4)?
Answer: Its Mortality is 0%.

Question: And the Water consumption (day 4)?
Answer: The Water consumption was 5.0 g/day/mice.

Question: And the daily body weight (day 4)?
Answer: The daily body weight was 22.40 ± 0.22 gm.

Question: And the “% change in daily body weight” value (day 5)?
Answer: The value was 21.31%.

Question: What about the Food consumption (day 5) of the same molecule?
Answer: The Food consumption was 4.6 g/day/mice.

Question: What about the Mortality (day 5) of the same molecule?
Answer: The Mortality was 0%.

Question: What about the Water consumption (day 5) of the same molecule?
Answer: The Water consumption was 5.2 g/day/mice.

Question: And the daily body weight (day 5)?
Answer: The daily body weight was 23.90 ± 0.31 gm.

Question: What about the “% change in daily body weight” value (day 6) of the same molecule?
Answer: The value was 21.82%.

Question: And the Food consumption (day 6)?
Answer: The Food consumption was 4.7 g/day/mice.

Question: And the Mortality (day 6)?
Answer: The Mortality was 0%.

Question: What about the Water consumption (day 6) of the same molecule?
Answer: Its Water consumption is 5.2 g/day/mice.

Question: What about the daily body weight (day 6) of the same molecule?
Answer: The daily body weight was 24.00 ± 0.29 gm.

Question: What about the “% change in daily body weight” value (day 7) of the same molecule?
Answer: The value was 22.95%.

Question: And the Food consumption (day 7)?
Answer: Its Food consumption is 5.0 g/day/mice.

Question: What about the Mortality (day 7) of the same molecule?
Answer: The Mortality was 10%.

Question: And the Water consumption (day 7)?
Answer: Its Water consumption is 5.1 g/day/mice.

Question: What about the daily body weight (day 7) of the same molecule?
Answer: Its daily body weight is 24.22 ± 0.22 gm.

Question: What about the “% change in daily body weight” value (day 8) of the same molecule?
Answer: The value was 24.08%.

Question: And the Food consumption (day 8)?
Answer: Its Food consumption is 5.1 g/day/mice.

Question: And the Mortality (day 8)?
Answer: The Mortality was 10%.

Question: And the Water consumption (day 8)?
Answer: The Water consumption was 5.2 g/day/mice.

Question: What about the daily body weight (day 8) of the same molecule?
Answer: The daily body weight was 24.44 ± 0.24 gm.

Question: What about the “% change in daily body weight” value (day 9) of the same molecule?
Answer: The value was 24.36%.

Question: What about the Food consumption (day 9) of the same molecule?
Answer: The Food consumption was 4.7 g/day/mice.

Question: What about the Mortality (day 9) of the same molecule?
Answer: The Mortality was 20%.

Question: What about the Water consumption (day 9) of the same molecule?
Answer: The Water consumption was 5.2 g/day/mice.

Question: And the daily body weight (day 9)?
Answer: Its daily body weight is 24.50 ± 0.18 gm.

Question: And the “% change in daily body weight” value (day 10)?
Answer: The value was 26.29%.

Question: What about the Food consumption (day 10) of the same molecule?
Answer: The Food consumption was 5.00 g/day/mice.

Question: And the Mortality (day 10)?
Answer: The Mortality was 20%.

Question: And the Water consumption (day 10)?
Answer: Its Water consumption is 5.3 g/day/mice.

Question: What about the daily body weight (day 10) of the same molecule?
Answer: Its daily body weight is 24.87 ± 0.29 gm.

Question: What about the “% change in daily body weight” value (day 11) of the same molecule?
Answer: The value was 28.17%.

Question: And the Food consumption (day 11)?
Answer: Its Food consumption is 5.1 g/day/mice.

Question: And the Mortality (day 11)?
Answer: Its Mortality is 20%.

Question: What about the Water consumption (day 11) of the same molecule?
Answer: Its Water consumption is 5.3 g/day/mice.

Question: And the daily body weight (day 11)?
Answer: Its daily body weight is 25.25 ± 0.25 gm.

Question: What about the “% change in daily body weight” value (day 12) of the same molecule?
Answer: Its value is −28.80%.

Question: And the Food consumption (day 12)?
Answer: Its Food consumption is 5.62 g/day/mice.

Question: What about the Mortality (day 12) of the same molecule?
Answer: Its Mortality is 20%.

Question: And the Water consumption (day 12)?
Answer: The Water consumption was 5.5 g/day/mice.

Question: What about the daily body weight (day 12) of the same molecule?
Answer: The daily body weight was 25.37 ± 0.26 gm.

Question: And the “% change in daily body weight” value (day 13)?
Answer: Its value is 31.97%.

Question: What about the Food consumption (day 13) of the same molecule?
Answer: Its Food consumption is 5.2 g/day/mice.

Question: And the Mortality (day 13)?
Answer: The Mortality was 30%.

Question: And the Water consumption (day 13)?
Answer: Its Water consumption is 5.4 g/day/mice.

Question: And the daily body weight (day 13)?
Answer: The daily body weight was 26.00 ± 0.30 gm.

Question: What about the “% change in daily body weight” value (day 14) of the same molecule?
Answer: Its value is 33.43%.

Question: What about the Food consumption (day 14) of the same molecule?
Answer: The Food consumption was 5.2 g/day/mice.

Question: What about the Mortality (day 14) of the same molecule?
Answer: Its Mortality is 30%.

Question: And the Water consumption (day 14)?
Answer: Its Water consumption is 5.4 g/day/mice.

Question: And the daily body weight (day 14)?
Answer: The daily body weight was 26.28 ± 0.28 gm.

Question: And the “% change in daily body weight” value (day 15)?
Answer: The value was 35.60%.

Question: What about the Food consumption (day 15) of the same molecule?
Answer: The Food consumption was 5.5 g/day/mice.

Question: And the Mortality (day 15)?
Answer: Its Mortality is 30%.

Question: What about the Water consumption (day 15) of the same molecule?
Answer: The Water consumption was 5.7 g/day/mice.

Question: What about the daily body weight (day 15) of the same molecule?
Answer: Its daily body weight is 26.71 ± 0.28 gm.

Question: What about the “Eosinophils Mean ± SE” value [1] of the same molecule?
Answer: Its value is 1.61 ± 0.10%.

Question: What about the “HCT Mean ± SE” value [1] of the same molecule?
Answer: Its value is 35.05 ± 1.5.

Question: What about the “HGB Mean ± SE” value [1] of the same molecule?
Answer: The value was 11.1 ± 0.18 g/dL.

Question: What about the “Lymphocytes Mean ± SE” value [1] of the same molecule?
Answer: Its value is 6.2 ± 0.1%.

Question: And the “MCH Mean ± SE” value [1]?
Answer: Its value is 28.2 ± 0.7 pg.

Question: And the “MCHC Mean ± SE” value [1]?
Answer: The value was 24.3 ± 0.5 g/dL.

Question: What about the “MCV Mean ± SE” value [1] of the same molecule?
Answer: The value was 72.04 ± 2.6 fL.

Question: What about the “Monocytes Mean ± SE” value [1] of the same molecule?
Answer: Its value is 1.06 ± 0.02%.

Question: What about the “Neutrophils Mean ± SE” value [1] of the same molecule?
Answer: The value was 25.9 ± 0.5%.

Question: And the “PLT Mean ± SE” value [1]?
Answer: Its value is 563.8 ± 17.4 10^3/mm^3.

Question: And the “RBC Mean ± SE” value [1]?
Answer: Its value is 7.50 ± 0.23 10^6/mm^3.

Question: What about the “WBC Mean ± SE” value [1] of the same molecule?
Answer: Its value is 8233.2 ± 83.7 Cell/mm^3.

Question: And the MDA [2]?
Answer: Its MDA is 2.33 ± 0.07***^b nmol/g.

Question: What about the NP-SH [2] of the same molecule?
Answer: Its NP-SH is 4.21 ± 0.18***^b nmol/g.

Question: And the “Total Protein” value [2]?
Answer: The value was 92.72 ± 1.54***^b g/l.

Question: What about the “Alkaline phosphatase Mean ± SE” value [3] of the same molecule?
Answer: Its value is 321.28 ± 6.91 U/L.

Question: What about the “Bilirubin Mean ± SE” value [3] of the same molecule?
Answer: The value was 0.75 ± 0.03 mg/dL.

Question: And the “Cholesterol Mean ± SE” value [3]?
Answer: The value was 134.8 ± 3.6 mg/dL.

Question: What about the “GGT Mean ± SE” value [3] of the same molecule?
Answer: Its value is 5.60 ± 0.17 U/L.

Question: And the “Glucose level Mean ± SE” value [3]?
Answer: Its value is 143.85 ± 2.47***^b mg/dl.

Question: What about the “HDL Mean ± SE” value [3] of the same molecule?
Answer: Its value is 29.8 ± 0.9 mg/dL.

Question: And the “LDH Mean ± SE” value [3]?
Answer: Its value is 184.92 ± 5.08***^b U/L.

Question: And the “LDL Mean ± SE” value [3]?
Answer: The value was 83.9 ± 3.3 mg/dL.

Question: What about the “SGOT(AST) Mean ± SE” value [3] of the same molecule?
Answer: Its value is 143.28 ± 2.88 U/L.

Question: And the “SGPT(ALT) Mean ± SE” value [3]?
Answer: Its value is 50.48 ± 3.17 U/L.

Question: And the “Triglycerides Mean ± SE” value [3]?
Answer: Its value is 105.1 ± 2.2 mg/dL.

Question: What about the “VLDL Mean ± SE” value [3] of the same molecule?
Answer: The value was 21.0 ± 0.4 mg/dL.
